Values after ≈ are worked out from the molar mass of the structure shown.
Tests used:
[1] = (§1) Cytotoxicity against human MT2 cells assessed as reduction in cell viability incubated for 4 days by XTT assay; format: toxicity, cell-based; conditions: MT2 cells, time 4 day
[2] = test system: Human immunodeficiency virus 1; test: Antiviral activity against HIV-1 NLRep-Rluc infected in human MT2 cells assessed as inhibition of viral growth incubated for 96 hrs by renilla luciferase assay; format: functional, organism-based
[3] = Selectivity index, ratio of CC50 for cytotoxicity against human MT2 cells to EC50 for antiviral activity against HIV-1 NLRep-Rluc infected in human MT2 cells; format: toxicity, cell-based; conditions: read-out: Ratio CC50/EC50
[4] = Drug metabolism in Beagle dog plasma assessed as metabolite formation at 100 mg/kg, po for 7 days by LC-MS/MS analysis; format: ADME, organism-based, Canis lupus familiaris; conditions: in vivo, 168 h, time 7 day
[5] = Toxicity in female Beagle dog assessed as change in AST level at 100 mg/kg, po QD for 7 days relative to baseline pretreatment; format: organism-based, Canis lupus familiaris; conditions: in vivo, 168 h, time 7 day
[6] = Toxicity in male Beagle dog assessed as hyperplasia of Kupffer cells at 100 mg/kg, po QD for 7 days by microscopy; format: organism-based, Canis lupus familiaris; conditions: in vivo, 168 h, time 7 day
[7] = Cmax in female Beagle dog at 100 mg/kg, po QD and measured after 1 day by LC-MS/MS analysis; format: ADME, organism-based, Canis lupus familiaris; set-up: dose 100 mg/kg, time 1 day, route po; conditions: in vivo
[8] = Half life in Wistar Han rat plasma at 1 mg/kg,iv and measured upto 96 hrs by LC-MS/MS analysis; format: ADME, organism-based
[9] = Toxicity in female Beagle dog assessed as change in TBA level at 100 mg/kg, po QD for 7 days relative to baseline pretreatment; format: organism-based, Canis lupus familiaris; conditions: in vivo, 168 h, time 7 day
[10] = Solubility of the compound at pH 6.5 buffer; format: physicochemical
[11] = Plasma concentration in Wistar Han rat at 20 mg/kg, IM and measured at 21 days by LC-MS/MS analysis; format: ADME, organism-based; conditions: time 21 day
[12] = Plasma concentration in Beagle dog at 5 mg/kg, IM and measured after 10 days by LC-MS/MS analysis; format: ADME, organism-based, Canis lupus familiaris; conditions: time 10 day
[13] = Solubility of the compound in FaSSGF at pH 1.6; format: physicochemical
[14] = Toxicity in female Beagle dog assessed as change in ALP level at 100 mg/kg, po QD for 7 days relative to baseline pretreatment; format: organism-based, Canis lupus familiaris; conditions: in vivo, 168 h, time 7 day
[15] = Toxicity in male Beagle dog assessed as fold increase in ALT level […] at 100 mg/kg, po QD for 7 days relative to baseline pretreatment; format: organism-based, Canis lupus familiaris; conditions: in vivo, 168 h, time 7 day
[16] = Toxicity in male Beagle dog assessed as fold increase in ALP level […] at 100 mg/kg, po QD for 7 days relative to baseline pretreatment; format: organism-based, Canis lupus familiaris; conditions: in vivo, 168 h, time 7 day
[17] = Half life in Wistar Han rat plasma at 20 mg/kg, SC and measured after 21 days by LC-MS/MS analysis; format: ADME, organism-based; conditions: time 21 day
[18] = Toxicity in male Beagle dog assessed as fold increase in GLDH level […] at 100 mg/kg, po QD for 7 days relative to baseline pretreatment; format: organism-based, Canis lupus familiaris; conditions: in vivo, 168 h, time 7 day
[19] = Plasma concentration in Wistar Han rat at 20 mg/kg, SC and measured at 21 days by LC-MS/MS analysis; format: ADME, organism-based; conditions: time 21 day
[20] = Toxicity in female Beagle dog assessed as change in GLDH level at 100 mg/kg, po QD for 7 days relative to baseline pretreatment; format: organism-based, Canis lupus familiaris; conditions: in vivo, 168 h, time 7 day
[21] = Solubility of the compound at pH 2 buffer; format: physicochemical
[22] = Clearance in Sprague-Dawley rat at 1 mg/kg, iv and measured upto 96 hrs by LC-MS/MS analysis; format: ADME, organism-based; conditions: in vivo
[23] = Half life in Beagle dog plasma at 5 mg/kg,IM and measured after 21 days by LC-MS/MS analysis; format: ADME, organism-based, Canis lupus familiaris; conditions: time 21 day
[24] = Cmax in female Beagle dog at 100 mg/kg, po QD and measured after 7 days by LC-MS/MS analysis; format: ADME, organism-based, Canis lupus familiaris; set-up: time 7 day, dose 100 mg/kg, route po; conditions: in vivo
[25] = Plasma concentration in Beagle dog at 5 mg/kg, SC and measured after 10 days by LC-MS/MS analysis; format: ADME, organism-based, Canis lupus familiaris; conditions: time 10 day
[26] = AUC (0 to 24) in male Beagle dog at 100 mg/kg, po QD and measured after 7 days by LC-MS/MS analysis; format: ADME, organism-based, Canis lupus familiaris; set-up: dose 100 mg/kg, time 7 day, route po; conditions: in vivo
[27] = Half life in Beagle dog plasma at 5 mg/kg,SC and measured after 21 days by LC-MS/MS analysis; format: ADME, organism-based, Canis lupus familiaris; conditions: time 21 day
[28] = Toxicity in male Beagle dog assessed as increase in mitotic figures in hepatocytes at 100 mg/kg, po QD for 7 days by microscopy; format: organism-based, Canis lupus familiaris; conditions: in vivo, 168 h, time 7 day
[29] = Toxicity in female Beagle dog assessed as change in ALT level at 100 mg/kg, po QD for 7 days relative to baseline pretreatment; format: organism-based, Canis lupus familiaris; conditions: in vivo, 168 h, time 7 day
[30] = Cmax in male Beagle dog at 100 mg/kg, po QD and measured after 7 days by LC-MS/MS analysis; format: ADME, organism-based, Canis lupus familiaris; set-up: dose 100 mg/kg, time 7 day, route po; conditions: in vivo
[31] = AUC (0 to 24) in female Beagle dog at 100 mg/kg, po QD and measured after 7 days by LC-MS/MS analysis; format: ADME, organism-based, Canis lupus familiaris; set-up: dose 100 mg/kg, time 7 day, route po; conditions: in vivo
[32] = AUC (0 to 24) in female Beagle dog at 100 mg/kg, po QD and measured after 1 day by LC-MS/MS analysis; format: ADME, organism-based, Canis lupus familiaris; set-up: time 1 day, dose 100 mg/kg, route po; conditions: in vivo
[33] = AUC (0 to 24) in male Beagle dog at 100 mg/kg, po QD and measured after 1 day by LC-MS/MS analysis; format: ADME, organism-based, Canis lupus familiaris; set-up: dose 100 mg/kg, time 1 day, route po; conditions: in vivo
[34] = Half life in Wistar Han rat plasma at 20 mg/kg, IM and measured after 21 days by LC-MS/MS analysis; format: ADME, organism-based; conditions: time 21 day
[35] = Cmax in male Beagle dog at 100 mg/kg, po QD and measured after 1 day by LC-MS/MS analysis; format: ADME, organism-based, Canis lupus familiaris; set-up: time 1 day, dose 100 mg/kg, route po; conditions: in vivo
[36] = Solubility of compound in FeSSIF at pH 5; format: physicochemical
[37] = Solubility of the compound in FaSSIF at pH 6.5; format: physicochemical
[38] = Toxicity in male Beagle dog assessed as fold increase in TBA level […] at 100 mg/kg, po QD for 7 days relative to baseline pretreatment; format: organism-based, Canis lupus familiaris; conditions: in vivo, 168 h, time 7 day
[39] = Toxicity in male Beagle dog assessed as fold increase in AST level […] at 100 mg/kg, po QD for 7 days relative to baseline pretreatment; format: organism-based, Canis lupus familiaris; conditions: in vivo, 168 h, time 7 day
[40] = test system: MT2; test: as §1; format: toxicity, cell-based; conditions: mt2, 96 h, 96 h, time 4 day

Compound: COc1ccc2nc([C@H](Cc3cc(F)cc(F)c3)NC(=O)Cn3nc(C(F)F)c4c3C(F)(F)[C@@H]3C[C@H]43)n(-c3ccc(Cl)c4c(NS(C)(=O)=O)nn(C)c34)c(=O)c2c1 (stereo in doubt; 12c)
- CC50 at 96 h [1]: > 20000 nM
- EC50 ([2]; mt2): 0.15 nM
- selectivity ratio [3]: > 1000

Compound: C[C@@H]1CN(c2ccc3c(=O)n(-c4ccc(Cl)c5c(NS(C)(=O)=O)nn(C)c45)c([C@H](Cc4cc(F)cc(F)c4)NC(=O)Cn4nc(C(F)F)c5c4C(F)(F)[C@@H]4C[C@H]54)nc3c2)C[C@H](C)O1
- Drug metabolism [4]: Metabolite_Detected
- Activity [5]: Non-Toxic
- EC50 ([2]; Human immunodeficiency virus 1, NLRep-Rluc, MT2, 96 h): 0.039 nM
- Activity [6]: Toxic
- Cmax [7]: 344 ng/mL
- half-life [8]: 3.2 h
- Activity [9]: Non-Toxic
- solubility [10]: < 1 µg/mL
- concentration at 504 h [11]: 10 ng/mL
- concentration at 240 h [12]: < 2.2 ng/mL
- solubility [13]: < 1 µg/mL
- Activity [14]: Non-Toxic
- fold change (FC) [15]: 87
- fold change (FC) [16]: 4.9
- half-life [17]: 39 h
- fold change (FC) [18]: 94
- concentration at 504 h [19]: 10 ng/mL
- Activity [20]: Non-Toxic
- solubility [21]: < 1 µg/mL
- clearance [22]: 8.9 mL/min/kg
- half-life [23]: 39 h
- Cmax [24]: 1320 ng/mL
- concentration at 240 h [25]: < 2.2 ng/mL
- AUC at 168 h [26]: 299000 ng·h/mL
- half-life [27]: 39 h
- Activity [28]: Toxic
- Activity [29]: Non-Toxic
- Cmax [30]: 13600 ng/mL
- AUC at 168 h [31]: 6780 ng·h/mL
- AUC at 24 h [32]: 1360 ng·h/mL
- AUC at 24 h [33]: 3710 ng·h/mL
- half-life [34]: 39 h
- Cmax [35]: 451 ng/mL
- solubility [36]: 22 µg/mL (≈ 24 µM)
- solubility [37]: < 1 µg/mL
- fold change (FC) [38]: 3
- fold change (FC) [39]: 4.8

Compound: COc1ccc2c(=O)n(-c3ccc(Cl)c4c(NS(C)(=O)=O)nn(C)c34)c([C@H](Cc3cc(F)cc(F)c3)NC(=O)Cn3nc(C(F)F)c4c3C(F)(F)[C@@H]3C[C@H]43)nc2c1 (stereo in doubt; 12b)
- CC50 [40]: > 20000 nM
- EC50 ([2]; mt2): 0.058 nM
- selectivity ratio [3]: > 1000
- clearance [22]: 8.3 mL/min/kg

From ChEMBL document CHEMBL5316333, “Potent Long-Acting Inhibitors Targeting the HIV-1 Capsid Based on a Versatile Quinazolin-4-one Scaffold” (J Med Chem, 2023)
